Each structure is given as a SMILES string.

The target in the experiment is Histone deacetylase 1/11/4/6/8. Put plainly: HDAC Activity screening. On the procedure:
Histone Deacetylase (HDAC) Inhibition Assay using Boc-Lys(Ac)-AMC Substrate: Inhibition of HDAC has been implicated to modulate transcription and to induce apoptosis or differentiation in cancer cells. The fluorometric assay provides a fast and fluorescence based method that eliminates radioactivity, extractions or chromatography, as used in traditional assays. The assay is based on two steps. First, the HDAC fluorometric substrate, which comprises an acetylated lysine side chain, is incubated with a sample containing HDAC activity (Mouse Liver Extract). Deacetylation of the substrate sensitizes the substrate; in the second step, treatment with the Trypsin, stop solution produces a fluorophore that can be easily analyzed using fluorescence plate reader. Assay was done in 96-well black microplate and total volume of the assay was […]. Mouse liver enzyme (10 mg/mL) was diluted 1:6 with HDAC buffer. Enzyme cocktail was made of 10 mL of diluted enzyme and 30 mL of HDAC buffer. Forty m
For `COc1ccc2c(c1)c(=O)c(C(=O)Nc1ccc(OC)c(OC)c1)cn2CCCCC(=O)NO` [Quinolone-based HDAC inhibitor 4n], the IC50 was 150 nM.
As for `O=C(CCCCn1cc(C(=O)Nc2ccc(F)cc2)c(=O)c2cc(F)ccc21)NO` [Quinolone-based HDAC inhibitor 4q], the figure is 40 nM; as for `COc1ccc2c(c1)c(=O)c(C(=O)Nc1ccc(F)cc1)cn2CCCCC(=O)NO` [Quinolone-based HDAC inhibitor 4l], 32 nM; as for `O=C(CCCCn1cc(C(=O)Nc2nc3ccccc3s2)c(=O)c2ccccc21)NO` [Quinolone-based HDAC inhibitor 4j], 1.5 nM.
Next, `O=C(CCCCn1cc(C(=O)Nc2nc3ccccc3s2)c(=O)c2cc(F)ccc21)NO` [Quinolone-based HDAC inhibitor 4v]: 39 nM.
Next, `COc1ccc2c(c1)c(=O)c(C(=O)Nc1ccccc1)cn2CCCCC(=O)NO` [Quinolone-based HDAC inhibitor 4k]: 32 nM; `O=C(CCCCn1cc(C(=O)Nc2ccc(F)cc2)c(=O)c2ccccc21)NO` [Quinolone-based HDAC inhibitor 4b]: 270 nM; `O=C(CCCCn1cc(C(=O)NC2=CC(c3ccccc3)N=N2)c(=O)c2ccccc21)NO` (stereo not drawn) [Quinolone-based HDAC inhibitor 4w]: 95 nM.
On to `COc1ccc(CNC(=O)c2cn(CCCCC(=O)NO)c3ccc(F)cc3c2=O)cc1` [Quinolone-based HDAC inhibitor 4s], for which the IC50 was determined as 330 nM.
In turn, `O=C(CCCCn1cc(C(=O)Nc2ccncc2)c(=O)c2ccccc21)NO` [Quinolone-based HDAC inhibitor 4g] yielded an IC50 of 90 nM.
As for `COc1ccc(NC(=O)c2cn(CCCCC(=O)NO)c3ccc(F)cc3c2=O)cc1` [Quinolone-based HDAC inhibitor 4r], the figure is 28 nM; as for `O=C(CCCCn1cc(C(=O)NCc2cccs2)c(=O)c2ccccc21)NO` [Quinolone-based HDAC inhibitor 4f], 390 nM; as for `COc1ccc(NC(=O)c2cn(CCCCC(=O)NO)c3ccc(F)cc3c2=O)cc1OC` [Quinolone-based HDAC inhibitor 4t], 230 nM.
As for `O=C(CCCCn1cc(C(=O)Nc2ccncc2)c(=O)c2cc(F)ccc21)NO` [Quinolone-based HDAC inhibitor 4u], the figure is 85 nM.
The molecule `COc1ccc(NC(=O)c2cn(CCCCC(=O)NO)c3ccc(OC)cc3c2=O)cc1` [Quinolone-based HDAC inhibitor 4m] showed an IC50 of 75 nM.
In turn, `O=C(CCCCn1cc(C(=O)Nc2ccccc2)c(=O)c2ccccc21)NO` [Quinolone-based HDAC inhibitor 4a] displayed an IC50 of 32 nM.
For the molecule `O=C(CCCCn1cc(C(=O)NCc2ccccc2)c(=O)c2ccccc21)NO` [Quinolone-based HDAC inhibitor 4d], the IC50 came to 120 nM.
Regarding `COc1ccc(CNC(=O)c2cn(CCCCC(=O)NO)c3ccccc3c2=O)cc1` [Quinolone-based HDAC inhibitor 4e], inhibition was half-maximal at 410 nM (IC50).
`COc1ccc2c(c1)c(=O)c(C(=O)Nc1cc(-c3ccccc3)nn1C)cn2CCCCC(=O)NO` [Quinolone-based HDAC inhibitor 4o]: the midpoint of inhibition, the IC50, lay at 10 nM.
As for `COc1ccc(NC(=O)c2cn(CCCCC(=O)NO)c3ccccc3c2=O)cc1` [Quinolone-based HDAC inhibitor 4c], the figure is 39 nM; as for `Cc1csc(NC(=O)c2cn(CCCCC(=O)NO)c3ccccc3c2=O)n1` [Quinolone-based HDAC inhibitor 4i], 0.1 nM.
Turning to `O=C(CCCCn1cc(C(=O)Nc2nccs2)c(=O)c2ccccc21)NO` [Quinolone-based HDAC inhibitor 4h], it took 42 nM to reach half-maximal inhibition (IC50).
Next, `COc1ccc2c(c1)c(=O)c(C(=O)Nc1nc3ccccc3s1)cn2CCCCC(=O)NO` [Quinolone-based HDAC inhibitor 4p]: 28 nM.

By IC50 is commonly meant the point on the concentration scale where inhibition reaches its midpoint.
